pEC50, pIC50: −log10 of the molar value.
Assays:
[1] = Efflux ratio of permeability in human Caco-2 cells; format: ADME, cell-based
[2] = Metabolic stability of the compound in human liver microsomes assessed as parent compound remaining measured after 30 mins; format: ADME, Microsome; settings: read-out: Stabilty
[3] = Metabolic stability of the compound in rat liver microsomes assessed as parent compound remaining measured after 30 mins; format: ADME, Microsome; settings: read-out: Stabilty
[4] = Metabolic stability of the compound in mouse liver microsomes assessed as parent compound remaining measured after 30 mins; format: ADME, Microsome; settings: for remaining at 0.5 h: liver microsomes, read-out: Stabilty
[5] = Permeability of the compound across apical to basolateral side in human Caco-2 cells; format: ADME, cell-based; settings: read-out: permeability
MDA-MB-231 [6] = test: Antiproliferative activity against human MDA-MB-231 cells; format: functional, cell-based
hERG (KCNH2) = hERG (KCNH2) (Homo sapiens, UniProt Q12809); test: Inhibition of human ERG at 10 uM by automated patch method relative to control
hERG (KCNH2), sequence (Q12809 whole entry): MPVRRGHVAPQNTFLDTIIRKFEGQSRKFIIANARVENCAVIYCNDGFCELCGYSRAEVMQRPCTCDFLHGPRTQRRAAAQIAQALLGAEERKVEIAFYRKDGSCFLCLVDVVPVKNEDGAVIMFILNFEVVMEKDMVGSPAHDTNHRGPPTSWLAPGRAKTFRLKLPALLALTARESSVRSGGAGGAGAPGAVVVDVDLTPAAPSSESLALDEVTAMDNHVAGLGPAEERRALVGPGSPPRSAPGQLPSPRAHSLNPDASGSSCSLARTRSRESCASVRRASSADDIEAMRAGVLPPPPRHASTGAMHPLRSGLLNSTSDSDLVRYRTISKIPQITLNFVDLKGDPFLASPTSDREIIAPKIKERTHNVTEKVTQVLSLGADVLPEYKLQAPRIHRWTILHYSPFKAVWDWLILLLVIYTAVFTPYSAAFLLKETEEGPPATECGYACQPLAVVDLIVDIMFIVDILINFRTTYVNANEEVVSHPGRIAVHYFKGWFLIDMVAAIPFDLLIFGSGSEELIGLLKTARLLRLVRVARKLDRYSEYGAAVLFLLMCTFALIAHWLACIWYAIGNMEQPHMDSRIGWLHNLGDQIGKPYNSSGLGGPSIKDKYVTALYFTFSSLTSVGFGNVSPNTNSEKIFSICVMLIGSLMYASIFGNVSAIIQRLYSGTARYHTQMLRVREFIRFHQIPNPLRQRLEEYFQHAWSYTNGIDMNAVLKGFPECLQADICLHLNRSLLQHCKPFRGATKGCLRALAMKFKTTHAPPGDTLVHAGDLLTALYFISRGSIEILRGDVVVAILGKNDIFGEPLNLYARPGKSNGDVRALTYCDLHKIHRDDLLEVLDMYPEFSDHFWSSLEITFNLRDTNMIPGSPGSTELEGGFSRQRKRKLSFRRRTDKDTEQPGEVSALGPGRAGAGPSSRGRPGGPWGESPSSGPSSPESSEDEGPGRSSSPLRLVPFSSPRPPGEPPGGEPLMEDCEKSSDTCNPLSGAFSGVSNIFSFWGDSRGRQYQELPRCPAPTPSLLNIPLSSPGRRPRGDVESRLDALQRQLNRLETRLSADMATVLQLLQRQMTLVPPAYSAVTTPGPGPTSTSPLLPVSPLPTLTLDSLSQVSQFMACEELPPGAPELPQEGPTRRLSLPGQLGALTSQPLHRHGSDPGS

[7] = molecular target: T1, Eukaryotic initiation factor 4A-I (Homo sapiens, UniProt P60842); test: Inhibition of eIF4A (unknown origin) assessed as inhibition of translation of RNA featuring highly structured 5'-UTR of c-Myc
T1 sequence (P60842 whole entry): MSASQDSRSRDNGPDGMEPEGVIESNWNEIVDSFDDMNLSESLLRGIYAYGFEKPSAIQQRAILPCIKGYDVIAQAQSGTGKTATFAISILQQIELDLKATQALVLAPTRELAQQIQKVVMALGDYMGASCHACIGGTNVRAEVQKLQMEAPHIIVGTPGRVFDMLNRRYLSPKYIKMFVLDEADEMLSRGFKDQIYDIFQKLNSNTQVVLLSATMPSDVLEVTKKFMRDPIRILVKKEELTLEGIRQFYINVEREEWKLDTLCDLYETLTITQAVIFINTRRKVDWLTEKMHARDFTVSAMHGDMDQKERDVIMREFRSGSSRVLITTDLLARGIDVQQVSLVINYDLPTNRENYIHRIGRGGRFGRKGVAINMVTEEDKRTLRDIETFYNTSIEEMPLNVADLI

[8] = molecular target: T1, Eukaryotic initiation factor 4A-I; test: Inhibition of eIF4A (unknown origin) assessed as inhibition of translation of RNA featuring short 5'-UTR of tubulin
Homo sapiens = species on record: Homo sapiens; test: Selectivity ratio of IC50 for inhibition of eIF4A (unknown origin) assessed as inhibition of translation of RNA featuring short 5'-UTR of tubulin to IC50 for inhibition of eIF4A (unknown origin) assessed as inhibition of translation of RNA featuring highly structured 5'-UTR of c-Myc
MDA-MB-231 [9] = test: Antiproliferative activity against human MDA-MB-231 cells assessed as inhibition of cell viability incubated for 72 hrs by CellTiter-Glo assay; format: functional, cell-based; settings: MDA-MB-231, 72 h

Row | SMILES | efflux ratio [1] | remaining at 0.5 h [2] [%] | remaining at 0.5 h [3] [%] | remaining at 0.5 h [4] [%] | Papp A→B [5] [×10⁻⁶ cm/s] | pEC50 (MDA-MB-231 [6]) | inhibition at 10 µM (hERG (KCNH2)) [%] | pIC50 [7] | pIC50 [8] | Ratio IC50 (Homo sapiens) | pEC50 (MDA-MB-231 [9]) | Stabilty ([4]; microsomes, 0.5 h) [%]
1 | COc1cncc2c1[C@]1(O)[C@@H](CN3CC4(COC4)C3)[C@H](CO)[C@@H](c3ccccc3)[C@]1(c1ccc(C#N)cc1)O2 (racemic) | 86 | 92 | 48 | 67 | 0.19 | 7.72 |  |  |  |  |  | 
2 | COc1cncc2c1[C@]1(O)[C@@H](CN)C[C@@H](c3ccccc3)[C@]1(c1ccc(C#N)cc1)O2 (racemic) | 58 | 102 | 85 | 108 | 0.13 | 7.96 | 54 | 8.25 | 7.66 | 3.9 |  | 
3 | COc1cncc2c1[C@]1(O)[C@@H](CN(C)C)[C@H](CO)[C@@H](c3ccccc3)[C@]1(c1ccc(C#N)cc1)O2 (racemic) | 33 | 77 | 61 | 67 | 0.4 | 8.10 | 79 |  |  |  |  | 
4 | N#Cc1ccc([C@@]23Oc4cc(Cl)cnc4[C@]2(O)[C@@H](CN)C[C@H]3c2ccccc2)cc1 (racemic) |  |  |  |  |  |  |  |  |  |  | 7.55 | 
5 | COc1cncc2c1[C@]1(O)[C@@H](CNCC(F)F)[C@H](CO)[C@@H](c3ccccc3)[C@]1(c1ccc(C#N)cc1)O2 (racemic) | 6.7 | 19 | 0 | 1 | 0.82 | 7.68 | 27 |  |  |  |  | 
6 | COc1cncc2c1[C@]1(O)[C@@H](CNCc3ccnn3C)[C@H](CO)[C@@H](c3ccccc3)[C@]1(c1ccc(C#N)cc1)O2 (racemic) | 76 | 1 | 2 | 1 | 0.19 | 7.42 |  |  |  |  |  | 
7 | COc1cncc2c1[C@]1(O)[C@@H](CN3CCOCC3)[C@H](CO)[C@@H](c3ccccc3)[C@]1(c1ccc(C#N)cc1)O2 (racemic) | 7 | 51 | 27 | 41 | 2.2 | 7.09 | < 10 |  |  |  |  | 
8 | COc1cncc2c1[C@]1(O)[C@@H](CN)[C@H](CO)[C@@H](c3ccccc3)[C@]1(c1ccc(Br)cc1)O2 (racemic) | 61 | 102 | 95 | 107 | 0.04 | 7.32 | 37 | 7.60 | 7.05 | 3.6 |  | 
9 | COc1cncc2c1[C@]1(O)[C@@H](CNC3COC3)[C@H](CO)[C@@H](c3ccccc3)[C@]1(c1ccc(Br)cc1)O2 (racemic) |  |  |  |  |  | 8.10 |  | 8.64 | 7.96 | 4.8 |  | 
10 | COc1cncc2c1[C@]1(O)[C@@H](CN3CCOCC3)[C@H](CO)[C@@H](c3ccccc3)[C@]1(c1ccc(Br)cc1)O2 (racemic) |  | 6 | 0 | 1 |  | 7.41 | 12 | 8.00 | 7.49 | 3.2 |  | 
11 | COc1cncc2c1[C@]1(O)[C@@H](CN)[C@H](CO)[C@@H](c3ccccc3)[C@]1(c1ccc(C#N)cc1)O2 (racemic) | > 4 | 95 | 97 | 83 | < 0.07 | 6.97 | < 10 |  |  |  |  | 
12 | COc1cncc2c1[C@]1(O)[C@@H](CNC3COC3)[C@H](CO)[C@@H](c3ccccc3)[C@]1(c1ccc(C#N)cc1)O2 (racemic) | 12 | 61 | 18 | 24 | 0.73 | 7.54 | < 10 |  |  |  |  | 
13 | COc1cncc2c1[C@]1(O)[C@@H](CN)C[C@@H](c3ccccc3)[C@]1(c1ccc(Br)cc1)O2 (racemic) | 13 | 99 | 58 |  | 0.43 | 7.82 |  | 8.30 | 7.68 | 4.2 |  | 123
